# PMC6154738, “Anti-Onchocerca and Anti-Caenorhabditis Activity of a Hydro-Alcoholic Extract from the Fruits of Acacia nilotica and Some Proanthocyanidin Derivatives” (Molecules : A Journal of Synthetic Chemistry and Natural …, 2017)
# Like-named read-outs stand apart in the source and are kept apart here.
# Legend:
# O. ochengi females = assay: microbe, parasite or virus in culture; parameters: species or system Onchocerca ochengi
# Method: The adult female worms were isolated by digestion of the nodules with collagenase at 37 °C. The female worms were cultured in a CO2-incubator [67]. For anthelmintic activity, they were incubated with the crude extracts, fractions and pure compounds.
# (§1) Adult worms (six individuals per well for males and one per well for the female) and Mf were washed twice and were subsequently transferred to RPMI-1640 medium supplemented with L-glutamine, 100 U/mL penicillin and 100 µg/mL streptomycin and incubated at 37 °C in 24-well plates (96-well plate for Mf) with different concentrations of the drugs tested. Worm mortality was checked by observation under the binocular microscope after 48 h. After shaking, immotile and fully-elongated worms were considered to be dead. All tests were done in three independent triplicate determinations.
# Wistar rats = assay: Acute oral toxicity on rats
# Description: Adult Wistar rats (Rattus norvegicus), males aged 7 to 8 weeks and weighing 150 to 200 g, used for the experiments were obtained from LANAVET (Laboratoire National Vétérinaire, Garoua, Cameroon). The rats were acclimatized for one week in the Veterinary Research Laboratory of the Institute of Agricultural Research for Development, Wakwa, Cameroon, before initiating experiments. Animals were housed in groups of three (one group for the negative control, six groups for each drug at the first phase, six others at the second phase) under ambient temperatures (23 °C ± 1 °C) with relative humidity 55 ± 5% and 12 h light/dark cycle in polycarbonate cages. […] They were monitored by a veterinarian for health status.
# Acute oral toxicity (LD50, that is the dose that kills 50% of animals of the tested group) was measured using the method of the OECD guidelines for the testing of chemicals [56] following the European Community guidelines for the protection of animals used in experiments [69] and respecting the 3Rs (Replacement, Refinement, Reduction) [70]. Drugs in distilled water were orally administered separately at doses of 10 mg/kg, 100 mg/kg and 1000 mg/kg body weight. The negative controls were distilled water-administered rats. They were given to three groups of three rats each and observed for 24 h. […] The test was done at a single oral dose for each rat in a 5 mL/kg volume. The experimental animals were starved for 24 h before and 4 h after treatment. […] The appearance of toxic symptoms, such as behavioral changes, locomotion, convulsions and mortality, was observed and recorded. Animals were observed constantly for the first 30 min after administration and, thereafter, every 4 h up to 24 h and, subsequently, once a day for up to 14 days.
# O. ochengi microfilariae = assay: microbe, parasite or virus in culture; parameters: species or system Onchocerca ochengi
# Method: Microfilariae were isolated as describe by Cho-Ngwa et al. and Ndjonka et al.. About 10 skin snips were obtained from different locations of the skin. The skin snips were then incubated at 37 °C in PBS to let Mf emerge. The highly motile Mf were concentrated by centrifugation at 400× g for 10 min and quantified. The Mf were incubated at 37 °C with the crude extract, fractions and pure compounds.
# as §1
# O. ochengi males = assay: microbe, parasite or virus in culture; parameters: species or system Onchocerca ochengi
# Description: The adult male worms were isolated as previously describe by Ndjonka et al. from fresh pieces of cattle skin (cow-udder) with palpable nodules obtained from the communal slaughter house of Ngaoundere in the Adamawa region of Cameroon. Nodules removed from the skin were brought to the laboratory, washed, drained and sterilized with 70% ethanol for dissection. After dissection of nodules, O. ochengi were extracted, isolated and washed three times in sterile phosphate-buffered saline (PBS). To analyze the anthelmintic activity of extract, fractions and pure compounds, the worms were incubated at 37 °C.
# as §1
# [1] = system: C. elegans VC722 (glc-2(ok1047) I); assay: microbe, parasite or virus in culture; details: for LC50: Caenorhabditis elegans, 48 h
# Method: (§2) All strains were obtained from the Caenorhabditis Genetic Centre (CGC, Minneapolis, MN, USA). Strains were maintained at 20 °C on nematode growth medium (NGM). All worms were age-synchronized and obtained from eggs that were isolated by bleaching.
# (§3) Young adult (L4 stage) worms were used to assess drug lethality. Monitored endpoint was 48 h mortality. Tests were performed in 24-well plates. Five hundred (500) microliters of test solution, which is M9-buffer (3 g KH2PO4, 6 g Na2HPO4, 5 g NaCl, 0.25 g MgSO4.7H2O, in 1 L of water after been autoclaved supplemented with 2% glucose, 0.5% cholesterol), were distributed in 24-well plates. The volume of M9-buffer equivalent to the drug to be added for each drug final concentration (in each test, three to six concentrations were used) was removed. Untreated worms in M9-buffer were used as negative control. […] Crude extract fraction (stock solution at 100 mg/mL) and pure compound (stock solution at 100 mg/mL) previously dissolved in M9-buffer were then added in well plates at increasing concentration (varying from 0 to 1000 or 1500 µg/mL for extract and fractions; 0 to 100 or 150 µg/mL). The young adult (10 to 15 ± 2) from the axenic culture (without food source) were then added at the test solution. […] Treatments were replicated three times.
# [2] = system: C. elegans CB3474 (ben-1(e1880) III); assay: microbe, parasite or virus in culture; details: Caenorhabditis elegans, 48 h
# Method: as §2, §3
# [3] = system: C. elegans CB211 (lev-1(e211) IV); assay: microbe, parasite or virus in culture; details: Caenorhabditis elegans, 48 h
# Method: as §2, §3
# [4] = system: C. elegans ZZ16 (lev-9(x16) X); assay: microbe, parasite or virus in culture; details: Caenorhabditis elegans, 48 h
# Method: as §2, §3
# [5] = system: C. elegans DA1316 (avr-14(ad1302) I avr-15(ad1051) glc-1(pk54)); assay: microbe, parasite or virus in culture; details: for LC50: Caenorhabditis elegans, 48 h
# Method: as §2, §3
# C. elegans N2 Bristol WT = assay: microbe, parasite or virus in culture
# Method: as §2, §3
# [6] = In vitro cytotoxicity (MTT) and CC50 determination; format: cell-based; details: human
# Method: (§4) Cell culture: […] cells at Passage 70 were kindly provided by Prof. Hensel, Institute of Pharmaceutical Biology and Phytochemistry, University of Münster, and were cultured as previously describe by Zumdick et al..
# (§5) Cytotoxicity test: The cytotoxicity assays were performed according to the method of Rahman et al.. Briefly, 1.5 × 10^4 viable cells/well were seeded in a 96-well plate and incubated for 24 to 48 h. […] DMEM samples were used as the negative control. […] The medium was removed, and formazan, generated by the activity of dehydrogenases, was solubilized with 70 µL of acidified isopropanol (0.4 M HCl). The amount of MTT-formazan that is directly proportional to the number of living cells was determined by measuring the optical density (OD) at 540 nm using a spectrophotometer. All controls used were treated equally. As control and to determine 100% growth, Caco-2 cells were grown in the absence of drugs so as to calculate cell viability. All determinations were performed in triplicate. […] The selectivity index (SI) values were calculated as the ratio: SI = CC50 of drug on Caco2/LC50 of drug on worm.
# O. ochengi [7] = assay: Anti-Onchocerca activity, all forms of the parasite (summary statements); details: read-out: LC50 against O. ochengi (all three forms)
# Method: as §1
# O. ochengi [8] = details: read-out: LC50 on O. ochengi; stated in the introduction, no reference given; cited from earlier work
# Caco-2 cells [9] = assay: In vitro cytotoxicity (MTT) and CC50 determination; format: cell-based
# Method: as §4, §5
# Caco-2 cells [10] = system: Caco-2 cells; parameters: method as in PMID 22776719; details: at 127 µg/mL; cited from earlier work
# [11] = Onchocerca ochengi, 48 h, read-out: LC50/48 h
# [12] = Onchocerca ochengi, 48 h, read-out: LC50/48 h (in brackets)
# [13] = SI = CC50 on Caco-2/LC50 on worm
# [14] = read-out: LC50/48 h (in brackets)
# [15] = Caco-2, CC50 after 48 h calculated in µM, read-out: Cytotoxicity CC50, Caco-2 (in brackets) (converted)
compound,measurement,setting,value
"O=C(OC1Cc2c(O)cc(O)cc2OC1c1ccc(O)c(O)c1)c1cc(O)c(O)c(O)c1 (single isomer, unassigned; (-)) [ECG, (−)-epicatechin-3-O-gallate]",LC50,O. ochengi females; [11],2.1 ± 0.6 µg/mL
same,LC50,O. ochengi females; [12],4.7 µM
same,Selectivity Index (SI) O. ochengi Females,O. ochengi females; [13],32.2
same,Mortality of rats: rat number end/start,"Wistar rats; Phase 1, 10 mg/kg single oral dose",0/3
same,Mortality of rats: rat number end/start,"Wistar rats; Phase 1, 100 mg/kg single oral dose",0/3
same,Mortality of rats: rat number end/start,"Wistar rats; Phase 1, 1000 mg/kg single oral dose",0/3
same,Mortality of rats: rat number end/start,"Wistar rats; Phase 2, 1500 mg/kg single oral dose",0/3
same,Mortality of rats: rat number end/start,"Wistar rats; Phase 2, 3000 mg/kg single oral dose",0/3
same,Mortality of rats: rat number end/start,"Wistar rats; Phase 2, 5000 mg/kg single oral dose",0/3
same,LC50,O. ochengi microfilariae; [11],1 ± 0.4 µg/mL
same,LC50,O. ochengi microfilariae; [12],2.2 µM
same,Selectivity Index (SI) O. ochengi Microfilariae,O. ochengi microfilariae; [13],67.6
same,LC50,O. ochengi males; [11],2.1 ± 0.3 µg/mL
same,LC50,O. ochengi males; [12],4.7 µM
same,Selectivity Index (SI) O. ochengi Males,O. ochengi males; [13],32.2
same,LC50,[1]; read-out: LC50/48 h,27.2 ± 1.4 µg/mL
same,LC50,[1]; [14],61.4 µM
same,LC50,[2]; read-out: LC50/48 h,19.6 ± 0.8 µg/mL
same,LC50,[2]; [14],44.2 µM
same,LC50,[3]; read-out: LC50/48 h,41.7 ± 1.2 µg/mL
same,LC50,[3]; [14],89.3 µM
same,LC50,[4]; read-out: LC50/48 h,39.5 ± 0.9 µg/mL
same,LC50,[4]; [14],76.4 µM
same,LC50,[5]; read-out: LC50/48 h,27.4 ± 1.1 µg/mL
same,LC50,[5]; [14],61.9 µM
same,LC50,"C. elegans N2 Bristol WT; Caenorhabditis elegans, 48 h, read-out: LC50/48 h",33.8 ± 2.7 µg/mL
same,Selectivity Index (SI) C. elegans Wild Type,C. elegans N2 Bristol WT; [13],2.0
same,CC50 at 48 h,[6]; [15],153 µM
same,CC50 at 72 h,"[6]; Caco-2, MTT, read-out: Cytotoxicity, means CC50 ± SD, Caco-2",67.6 ± 0.5 µg/mL
same,LC50,O. ochengi [7],< 2.5 µg/mL
Ivermectin [reference compound],LC50,"O. ochengi females; O. ochengi females, 48 h, calculated in µM, read-out: LC50/48 h (in brackets) (converted)",1.7 µM
same,LC50/48 h,"O. ochengi females; O. ochengi females, 48 h, mean ± SD",1.5 ± 0.3 µg/mL
same,LC50,"O. ochengi microfilariae; O. ochengi microfilariae, 48 h, calculated in µM, read-out: LC50/48 h (in brackets) (converted)",1.7 µM
same,LC50/48 h,"O. ochengi microfilariae; O. ochengi microfilariae, 48 h, mean ± SD",1.5 ± 0.0 µg/mL
same,LC50,"O. ochengi males; O. ochengi males, 48 h, calculated in µM, read-out: LC50/48 h (in brackets) (converted)",1.3 µM
same,LC50/48 h,"O. ochengi males; O. ochengi males, 48 h, mean ± SD",1.2 ± 0.5 µg/mL
same,LC50,O. ochengi [8],1.7 µM
same,LC50/48 h,[1]; C. elegans VC722 (ivermectin-resistant),>100 µg/mL
same,LC50/48 h,[5]; C. elegans DA1316 (ivermectin-resistant),>100 µg/mL
same,LC50/48 h,"C. elegans N2 Bristol WT; C. elegans WT, 48 h, mean ± SD",1.2 ± 0.1 µg/mL
same,LC50,"C. elegans N2 Bristol WT; read-out: LC50/48 h (in brackets), C. elegans WT, 48 h, calculated in µM",1.3 µM
same,CC50,Caco-2 cells [9]; [15],140 µM
same,"Cytotoxicity, means CC50 ± SD, Caco-2","Caco-2 cells [9]; Caco-2, MTT",28.7 ± 0.7 µg/mL
procyanidin,Reduction of cell viability,Caco-2 cells [10],15%
